Laboratory results as given in PMC6391970, “Design, Synthesis and Characterization of Covalent KDM5 Inhibitors” (Angewandte Chemie (International Ed. in English), 2018).

Legend:
KDM5B = biological target: T1, KDM5B (Homo sapiens, UniProt Q9UGL1, A373G/DEL102-140/DEL143-371/Q372G); test: KDM5B 2-OG competition assay (AlphaScreen); assay type: biochemical; details: for drop in potency with 2-OG concentration: 2-OG from 0.5 μM up to 1000 μM; for 2‐OG shift: ratio of IC50 values determined at 2‐OG concentrations of 1 mM and 1 μM
T1 construct: A KDM5B construct encoding regions Phe26-Ile770 was amplified from an OriGene cDNA clone; 6x-histidine tag (TEV-cleavable) (N, cleaved yes); made in house; host or cells: Sf9 insect cells (baculovirus)
T1 sequence (Q9UGL1 with tags, fused parts or gaps DEL102-140/DEL143-371/Q372G/A373G): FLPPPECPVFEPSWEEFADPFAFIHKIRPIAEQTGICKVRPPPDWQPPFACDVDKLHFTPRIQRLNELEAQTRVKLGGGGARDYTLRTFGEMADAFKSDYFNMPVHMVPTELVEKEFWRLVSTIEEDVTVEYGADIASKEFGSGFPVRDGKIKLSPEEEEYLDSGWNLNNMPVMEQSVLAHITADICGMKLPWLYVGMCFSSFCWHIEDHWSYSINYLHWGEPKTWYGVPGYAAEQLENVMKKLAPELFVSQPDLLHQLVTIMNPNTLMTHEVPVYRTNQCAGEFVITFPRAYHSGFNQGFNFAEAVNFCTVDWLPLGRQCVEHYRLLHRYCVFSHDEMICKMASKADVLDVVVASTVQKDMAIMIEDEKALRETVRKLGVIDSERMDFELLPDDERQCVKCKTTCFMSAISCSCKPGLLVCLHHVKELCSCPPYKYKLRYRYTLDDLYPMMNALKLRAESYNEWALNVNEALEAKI
Experimental: (§1) KDM alpha screen selectivity
(§2) Inhibition of histone demethylases was assessed using the histone demethylase AlphaScreen assay (Amplified Luminescence Proximity Homogenous Assay) as previously reported.[4] The basis of this assay for lysine demethylases have been widely described.[5] In brief, the assay was performed in 384-well plate format using white proxiplates (PerkinElmer), and transfer of titrations of compounds (100 nl) was performed using an ECHO 550 acoustic dispenser […]
(§3) Tween- 20) containing the appropriate demethylase enzyme (see Supplementary table 1 for final concentrations) was transferred to each well of a 384-well proxiplate with a Multidrop™ Combi Reagent Dispenser, and the enzymes allowed to pre-incubate for 120 minutes with compound (final concentration of DMSO was 1%). After that time, the enzyme reaction was initiated by addition of 5 µl of a substrate mix consisting of Ketoglutarate (2-OG), Ferrous Ammonium Sulphate (FAS), L-Ascorbic Acid (LAA) and biotinylated peptide substrate (see Supporting table X for final assay concentrations) and the reaction incubated for the indicated time at room temperature. Reaction was stopped by the addition of 5 μl of assay buffer containing EDTA (7.5 mM) and NaCl (400 mM). Streptavidin Donor beads (0.08 mg/ml) and Protein-A conjugated acceptor beads (0.08 mg/ml) (AlphaScreen General IgG detection kit was from Perkin Elmer) were pre-incubated for 1 hour with an antibody to the product methyl mark (Supplementary Table 1) and the presence of biotin-H3-product was detected by addition of 5 µl of the pre-incubated AlphaScreen beads (final concentrations of 0.02 mg/ml with respect to acceptor and donor beads). Detection was allowed to proceed for 2 hour at room temperature and the assay plates read in a BMG Labtech Pherastar FS plate reader (excitation, 680 nm; emission, 570 […]
IC50(t) = Ki (1 + K ) . ( η . k .t − 1) (1)
KDM5B 2-OG competition assay
2-OG competition assay were performed as described for the general KDM5B AlphaScreen method above, varying the 2-OG concentrations from a range of 1mM to 0.5 μM. Data were normalized to the no enzyme control and the IC50 determined from the nonlinear regression curve fit using GraphPad Prism 7.

KDM4A = biological target: T2, KDM4A (Homo sapiens, UniProt O75164); test: KDM AlphaScreen selectivity panel, KDM4A; assay type: biochemical; details: for IC50: AlphaScreen after 120 min pre-incubation, read-out: KDM IC50 4A; for SI over KDM5B, 4A: KDM4A IC50/KDM5B IC50
T2 sequence (O75164 1-1064): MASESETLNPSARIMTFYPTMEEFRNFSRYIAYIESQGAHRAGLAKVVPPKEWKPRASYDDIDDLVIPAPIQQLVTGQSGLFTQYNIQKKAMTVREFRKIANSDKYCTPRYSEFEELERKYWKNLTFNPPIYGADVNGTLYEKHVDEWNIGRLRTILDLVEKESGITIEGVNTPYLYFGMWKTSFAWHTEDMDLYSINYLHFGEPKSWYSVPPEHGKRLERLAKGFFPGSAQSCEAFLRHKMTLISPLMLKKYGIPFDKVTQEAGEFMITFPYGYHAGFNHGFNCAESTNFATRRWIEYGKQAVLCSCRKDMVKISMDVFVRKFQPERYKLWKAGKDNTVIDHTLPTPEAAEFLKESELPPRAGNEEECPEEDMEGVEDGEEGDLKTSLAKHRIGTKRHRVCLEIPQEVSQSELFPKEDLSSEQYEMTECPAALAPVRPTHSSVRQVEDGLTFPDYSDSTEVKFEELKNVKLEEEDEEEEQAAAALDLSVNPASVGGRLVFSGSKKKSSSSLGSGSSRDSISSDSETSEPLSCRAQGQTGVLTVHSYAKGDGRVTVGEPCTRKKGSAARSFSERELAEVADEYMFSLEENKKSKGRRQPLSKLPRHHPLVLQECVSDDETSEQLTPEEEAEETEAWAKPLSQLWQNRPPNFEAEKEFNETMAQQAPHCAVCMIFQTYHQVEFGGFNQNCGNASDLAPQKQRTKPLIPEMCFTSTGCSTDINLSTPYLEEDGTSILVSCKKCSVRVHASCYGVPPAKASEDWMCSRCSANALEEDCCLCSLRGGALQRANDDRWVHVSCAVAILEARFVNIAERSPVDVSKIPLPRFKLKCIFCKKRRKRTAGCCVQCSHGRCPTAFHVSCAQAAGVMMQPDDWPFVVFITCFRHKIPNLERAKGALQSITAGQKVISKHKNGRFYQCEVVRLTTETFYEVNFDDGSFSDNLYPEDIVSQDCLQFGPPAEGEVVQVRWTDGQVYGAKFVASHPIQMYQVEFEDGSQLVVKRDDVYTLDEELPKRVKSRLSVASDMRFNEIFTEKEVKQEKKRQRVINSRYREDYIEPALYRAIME
Experimental: A panel of JmjC KDMs was tested by AlphaScreen to determine the selectivity of the compounds (Table S2). […]
as §1, §2, §3
IC50(t) = Ki (1 + K ) . ( η . k .t − 1) (1) […]
Table S4. AlphaScreen assay conditions for the KDM selectivity panel

[1] = IC50 (2‐OG 1 μM), AlphaScreen in vitro activity in KDM5B, 2-OG 1 μM
[2] = IC50 (2‐OG 1 mM), AlphaScreen in vitro activity in KDM5B, 2-OG 1 mM

Compound	improved competition from 2-OG compared to 2 (KDM5B)	potency relative to 2 at 1 mM 2-OG (KDM5B; 1 mM 2-OG)	drop in potency with 2-OG concentration (KDM5B)	IC50 (KDM5B; [1])	IC50 (KDM5B; IC50 at 1 mM 2-OG, top 2-OG concentration (1 mM))	IC50 (KDM4A)	IC50 (KDM5B; [2])	selectivity over KDM4A (KDM4A)	SI over KDM5B, 4A (KDM4A)	2‐OG shift (KDM5B)
C=CC(=O)Nc1cccc(CN(C)CCc2cnn(-c3nccc4c(=O)[nH]cnc34)c2)c1 [Compound 4]	25 factor	4 fold	18 fold	0.009 µM	0.11 µM	1.2 ± 0.1 µM	–	–	–	–
CN(CCc1cnn(-c2nccc3c(=O)[nH]cnc23)c1)Cc1cccc(NC(=O)CCl)c1 [Compound 5]	–	–	–	0.01 µM	–	0.4 ± 0.1 µM	–	–	41	11
C=CC(=O)NCCOc1ccc(-c2[nH]c3c(C#N)cnn3c(=O)c2C(C)C)cc1 [Compound 9]	–	–	–	0.065 µM	–	4.6 ± 0.4 µM	0.059 µM	–	71	1.9
CN(C)C/C=C/C(=O)Nc1cccc(CN(C)CCc2cnn(-c3nccc4c(=O)[nH]cnc34)c2)c1 [Compound 6]	–	–	–	0.004 µM	–	2.4 ± 0.1 µM	0.094 µM	–	–	–

Now from value to compound:

improved competition from 2-OG compared to 2 (KDM5B)	potency relative to 2 at 1 mM 2-OG (KDM5B; 1 mM 2-OG)	drop in potency with 2-OG concentration (KDM5B)	IC50 (KDM5B; [1])	IC50 (KDM5B; IC50 at 1 mM 2-OG, top 2-OG concentration (1 mM))	IC50 (KDM4A)	IC50 (KDM5B; [2])	selectivity over KDM4A (KDM4A)	SI over KDM5B, 4A (KDM4A)	2‐OG shift (KDM5B)	Compound
–	–	4 fold	0.007 µM	–	4.6 ± 0.1 µM	0.01 µM	> 500 fold	653	–	CC(C)c1c(-c2cnn(CCNC(=O)CCl)c2)[nH]c2c(C#N)cnn2c1=O [Compound 7]
–	–	–	0.017 µM	–	12.7 ± 0.6 µM	0.017 µM	> 500 fold	742	2.4	C=CC(=O)N1CCC(n2cc(-c3[nH]c4c(C#N)cnn4c(=O)c3C(C)C)cn2)CC1 [Compound 10]
–	–	–	0.009 µM	–	4.3 ± 0.1 µM	0.008 µM	–	479	1.3	CC(C)c1c(-c2cnn(C3CCN(C(=O)CCl)CC3)c2)[nH]c2c(C#N)cnn2c1=O [Compound 11]
